Reference: patent US8492391B2, “Substituted 6-(2-hydroxybenzylamino)purine derivatives, their use as medicaments and compositions containing these derivatives” (Univerzita Palackeho V Olomouci, priority 2009, dated 2013)

Legend:
[1] = tested on: HOS (human osteogenic sarcoma); assay: Calcein AM cytotoxicity assay, HOS; assay type: cell-based; settings: Homo sapiens, read-out: Cytotoxic activity IC50 (μM) HOS
Source text: (§1) Cytotoxicity of the compounds is the major property determining their anticancer effect in vivo. One of the parameters used, as the basis for cytotoxicity assays, is the metabolic activity of viable cells. For example, a microtiter assay, which uses the Calcein AM, is now widely used to quantitate cell proliferation and cytotoxicity. For instance, this assay is used in drug screening programs and in chemosensitivity testing. Because only metabolically active cells cleave Calcein AM, these assays detect viable cells exclusively. The quantity of cleaved Calcein AM corresponds to the number of vital cells in the culture. We have been using the following cell lines: MCF7 (human breast adenocarcinoma), K562 (human chronic myelogenous leukaemia), HOS (human osteogenic sarcoma), HeLa (human cervical carcinoma), HL 60 (human promyelocytic leukaemia), G 361 (human malignant melanoma), CEM (human lymphoblastoid leukaemia). All cell lines were grown in DMEM medium (Gibco BRL) supplemented with 10% (v/v) fetal bovine serum and L-glutamine and maintained at 37° C. in a humidified atmosphere with 5% CO2. For cytotoxicity assays, 10^4 cells were seeded into each well of 96 well plate, allowed to stabilize for at least 2 h and then tested compounds were added at various concentrations ranging from 100 to 0.1 μM in triplicates. Three days after drug addition Calcein AM solution (Molecular Probes) was added and let to enter the cells for 1 hour. Fluorescence of viable cells was quantified using Fluoroskan Ascent (Microsystems).

[2] = tested on: MCF7 (human breast adenocarcinoma); assay: Calcein AM cytotoxicity assay, MCF7; assay type: cell-based
Source text: as §1

CDK2/cyclin E = biological target: T1, CDK2/cyclin E (Homo sapiens, UniProt P24941); assay: CDK2/cyclin E kinase inhibition assay; assay type: biochemical
T1 construct: made in house; host or cells: Sf9 insect cells, baculovirus co-infection
Experimental: (§2) Selected compounds were tested for CDK1/cyclin B, CDK2/cyclin E, CDK5/p25, CDK7/cyclin H and CDK9/cyclin T inhibitory activity to determine the basic relationships between their structure and the inhibitory activity. Cdk/cyclin complexes were expressed in Sf9 cells co-infected with appropriate baculoviral construct. The cells were harvested 70 hours post infection in lysis buffer (50 mM Tris pH 7.4, 150 mM NaCl, 5 mM EDTA, 20 mM NaF, 1% Tween 20, protease inhibitors) for 30 min on ice and the soluble fraction was recovered by centrifugation at 14.000 g for […]. The protein extract was stored at −80° C. until use. The final point test system for kinase activity measurement was used to carry out experiments on the kinetics under linear conditions. […] ATP and tested compound in a final volume of 20 μl, all in reaction buffer: 50 mM Hepes pH 7.4, 10 mM MgCl2, 5 mM EGTA, 10 mM 2-glycerolphosphate, 1 mM NaF, 1 mM DTT and protease inhibitors. After 30 min, the incubations were stopped by adding 5% H3PO4 and then the proteins were separated by phosphocellulose binding. The measurement of kinase inhibition employed the digital imaging analyzer BAS 1800. The kinase activity was expressed as a percentage of maximum activity and the IC50 value was determined by graphic analysis. The kinase activity is expressed as a percentage of maximum activity (FIG. 1).

CDK9/cyclin T = biological target: T2, CDK9/cyclin T (Homo sapiens, UniProt P50750); assay: CDK9/cyclin T kinase inhibition assay; assay type: biochemical; settings: kinase inhibitory activity, 15 μM ATP, (YSPTSPS)3 peptide substrate
T2 construct: made in house; host or cells: Sf9 insect cells, baculovirus co-infection
T2 sequence (P50750 whole entry, species assumed): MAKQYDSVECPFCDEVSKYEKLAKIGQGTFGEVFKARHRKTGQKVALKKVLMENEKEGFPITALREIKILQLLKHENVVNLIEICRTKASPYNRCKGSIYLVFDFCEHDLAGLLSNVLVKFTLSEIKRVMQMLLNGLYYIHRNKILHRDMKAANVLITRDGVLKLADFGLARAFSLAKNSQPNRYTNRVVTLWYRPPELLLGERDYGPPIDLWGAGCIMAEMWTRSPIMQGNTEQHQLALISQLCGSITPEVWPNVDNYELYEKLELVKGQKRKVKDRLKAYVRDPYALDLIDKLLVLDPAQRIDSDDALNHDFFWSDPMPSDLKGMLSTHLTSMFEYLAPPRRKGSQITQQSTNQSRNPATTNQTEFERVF
T2 sequence (O60563 whole entry partner, species assumed): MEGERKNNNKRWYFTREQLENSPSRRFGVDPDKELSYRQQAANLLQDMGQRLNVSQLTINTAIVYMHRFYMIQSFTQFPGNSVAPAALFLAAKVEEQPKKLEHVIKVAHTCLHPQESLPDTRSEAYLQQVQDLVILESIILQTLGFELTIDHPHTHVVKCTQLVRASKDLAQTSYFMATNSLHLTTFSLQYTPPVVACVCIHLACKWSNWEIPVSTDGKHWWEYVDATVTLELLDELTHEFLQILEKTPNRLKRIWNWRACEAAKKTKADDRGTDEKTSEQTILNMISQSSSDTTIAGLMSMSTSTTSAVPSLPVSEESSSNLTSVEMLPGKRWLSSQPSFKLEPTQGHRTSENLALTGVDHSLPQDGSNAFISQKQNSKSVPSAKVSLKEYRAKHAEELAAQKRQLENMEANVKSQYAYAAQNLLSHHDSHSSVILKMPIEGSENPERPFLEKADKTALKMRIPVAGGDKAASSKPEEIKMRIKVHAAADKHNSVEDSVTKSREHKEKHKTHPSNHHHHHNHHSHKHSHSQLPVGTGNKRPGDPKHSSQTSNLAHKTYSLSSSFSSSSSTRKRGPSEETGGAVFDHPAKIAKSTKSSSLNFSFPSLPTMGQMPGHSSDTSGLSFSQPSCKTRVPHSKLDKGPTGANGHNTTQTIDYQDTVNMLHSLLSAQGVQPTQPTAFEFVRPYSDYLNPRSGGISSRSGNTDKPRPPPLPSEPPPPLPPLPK
Experimental: as §2

P388D1 leukemia = assay: Survival model of P388D1 leukemia transplanted intraperitoneally; assay type: in vivo, DBA-2 mice; settings: 250 mg/kg orally twice daily, Days 1-3 and 7-9
Experimental: Screening of biological activity of compound 128 was performed on survival model of P388D1 leukemia transplanted intraperitoneally with 2.10^5 cells. DBA-2 mice were used as a host. One day following the leukemia transplantation, treatment with 128 was initiated. The drug was given orally by gastric gavages in total volume of 200 μl/dose twice daily at dose 250 mg/kg in two chemotherapy cycles (Days 1-3 and 7-9). The compound 128 was solubilized in 5% N-methyl-2-pyrollidine, 30% polyethylene glycol 400, 65% tartar buffer (pH 3.0). Survival analysis of treated animals (10 mice/group) was preformed in comparison with vehicle treated mice using Kaplan-Meier method and the significance was evaluated by the log-rank test. Body weight of experimental animals was evaluated in parallel in order to reflect toxicity and efficacy of therapy. Comparative analysis of body weight was performed using non-parametric t-test.

A549 lung adenocarcinoma = assay: Human xenograft model of A549 lung adenocarcinoma; assay type: in vivo; settings: 150 mg/kg orally twice daily
Experimental: More detailed analysis of anticancer activity of compound 128 was performed on human xenograft model of A549 lung adenocarcinoma transplanted to CD-1 SCID mice. Animals were transplanted subcutaneously with 2.10^6 A549 cells into lower back. Approximately one month later, majority of animals developed palpable tumors and therapy was initiated. The drug was given orally by gastric gavages in total volume of 200 μl/dose twice daily at dose 150 mg/kg in two chemotherapy cycles (Days 1-3 and 7-9). The compound 128 was solubilized in 5% N-methyl-2-pyrollidine, 30% polyethylene glycol 400, 65% tartar buffer (pH 3.0). Primary endpoint for analysis was reduction of tumor volume (10 mice/group), which was quantified by caliperation. Analysis of treated animals was preformed in comparison with vehicle treated mice. Body weight of experimental animals was also evaluated in parallel in order to reflect toxicity of the therapy. Comparative analysis of tumor volumes and body weights was performed using non-parametric t-test.

## CCC(CO)Nc1nc(NCc2cccc(OC)c2O)c2ncn(C(C)C)c2n1 (racemic) [Compound 128, (RS)-2-({6-[(2-hydroxy-3-methoxybenzyl)amino]-9-isopropyl-9-H-purin-2-yl}amino)butan-1-ol]
[1]
  IC50: 5.9 µM
[2]; Homo sapiens, MCF7, read-out: Cytotoxic activity IC50 (μM) MCF7
  IC50: 5 µM
[2]; MCF7, 72 h
  number of viable cells (antiproliferative activity): significantly reduces the number of living cells
CDK2/cyclin E; CDK2/cyclin E
  inhibition of kinase activity (FIG. 1): inhibition of the CDK2/cyclin E kinase activity
CDK2/cyclin E; kinase inhibitory activity, 15 μM ATP, histone substrate
  IC50: 0.07 µM
CDK9/cyclin T
  IC50: 0.04 µM
P388D1 leukemia
  body weight of treated animals: reducing body weight of treated animals
  mean survival time: 27.4 days
P388D1 leukemia; vs vehicle, P=0.0427
  survival (Kaplan-Meier, log-rank test): significantly better survival
A549 lung adenocarcinoma; Days 1-3 and 7-9
  mean survival time: 39.1 days
  tolerability: good tolerability
A549 lung adenocarcinoma; Days 1-3 and 7-9, vs vehicle, P=0.0506
  tumor volume: significantly smaller tumors
A549 lung adenocarcinoma; significant at Day 52 only
  body weight of treated animals: only slight reduction the body weight
